Results on 5 substances are retold here after patent US6750034B1, “DNA encoding human serine protease D-G” (Ortho-McNeil Pharmaceutical, Inc., priority 2000, dated 2004).

[ ]: non-standard residue; d: D form. The star is where a group is joined. pNA = O=[N+]([O-])c1ccc(N*)cc1; Cbz = O=C(OCc1ccccc1)*

T1 sequence (Q9NRS4 205-434 limits assumed): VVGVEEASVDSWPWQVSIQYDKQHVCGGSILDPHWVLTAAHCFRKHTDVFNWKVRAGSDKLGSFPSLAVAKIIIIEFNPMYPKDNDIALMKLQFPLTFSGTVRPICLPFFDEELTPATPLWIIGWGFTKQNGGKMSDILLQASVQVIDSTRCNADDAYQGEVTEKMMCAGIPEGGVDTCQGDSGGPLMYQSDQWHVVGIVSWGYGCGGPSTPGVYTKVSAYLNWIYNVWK

This test concerns the target T1, activated protease D-G-6×HIS (Homo sapiens, UniProt Q9NRS4).
T1 construct: enterokinase cleavage site from human trypsinogen I (EK) (N, cleaved yes); made in house; host or cells: Sf9 insect cells, baculovirus (pFastBac 1)
As to the kind of experiment: Chromogenic (amidolytic) assay, release of pNA from synthetic substrates. The class given is biochemical. The following applies: recombinant activated protease D-G-6×HIS; substrate 500 uM; 10 mM TRIS-HCl pH 7.8, 25 mM NaCl, 25 mM imidazole; 37° C., 120 min, 405 nm; N.A. = No Activity. On the procedure: Amidolytic activities of the activated serine proteases are monitored by release of para-nitroaniline (pNA) from synthetic substrates that are commercially available (Bachem California Inc., Torrance, […].; American Diagnostica Inc., Greenwich, Conn.; Kabi Pharmacia Hepar Inc., Franklin, Ohio). Assay mixtures contain chromogenic substrates in 500 uM and 10 mM TRIS-HCl (pH 7.8), 25 mM NaCl, and 25 mM imidazole. Release of pNA is measured over 120 min at 37° C. on a micro-plate reader (Molecular Devices, Menlo Park, Calif.) with a 405 nm absorbance filter. The initial reaction rates (Vmax, mOD/min) are determined from plots of absorbance versus time using Softmax (Molecular Devices, Menlo Park, Calif.). The specific activities (nmole pNA produced/min/ug protein) of the activated protease D-G-6×HIS for the various substrates are presented in Table 1.
Table 1—The specific activity (nmole pNA produced/min/ug protein) of recombinant activated protease D-G-6×HIS, determined for the various substrates analyzed, is shown.
Consider Cbz-Phe-Arg-pNA, for which the “Specific Activity” value is 0.116 ± 0.006 nmole pNA produced/min/ug protein. Under H-D-LYS(CBO)-Pro-Arg-pNA stands 0.076 ± 0.008 nmole pNA produced/min/ug protein; under H-D-Pro-HHT-Arg-pNA, 0.046 ± 0.001 nmole pNA produced/min/ug protein; under H-[dV]-Leu-Arg-pNA, 0.025 ± 0.003 nmole pNA produced/min/ug protein. Under H-[dV]-Leu-Lys-pNA stands 0.034 ± 0.003 nmole pNA produced/min/ug protein.
